Measured values taken from US20120157482A1, “COMPOUNDS AND METHODS” (priority 2009, published 2012).
Where a name gives a salt, the structure may show the parent alone.

Target: T1, His-MBP-TEV-Full length human TNNI3K (hTNNI3K) (Homo sapiens, UniProt Q59H18)
T1 construct: His-MBP-TEV-Full length human TNNI3K (hTNNI3K); His (N); TEV cleavage site (N); made in house; host or cells: baculovirus system (printed 'Baculokinase system')
T1 sequence (Q59H18 1-835): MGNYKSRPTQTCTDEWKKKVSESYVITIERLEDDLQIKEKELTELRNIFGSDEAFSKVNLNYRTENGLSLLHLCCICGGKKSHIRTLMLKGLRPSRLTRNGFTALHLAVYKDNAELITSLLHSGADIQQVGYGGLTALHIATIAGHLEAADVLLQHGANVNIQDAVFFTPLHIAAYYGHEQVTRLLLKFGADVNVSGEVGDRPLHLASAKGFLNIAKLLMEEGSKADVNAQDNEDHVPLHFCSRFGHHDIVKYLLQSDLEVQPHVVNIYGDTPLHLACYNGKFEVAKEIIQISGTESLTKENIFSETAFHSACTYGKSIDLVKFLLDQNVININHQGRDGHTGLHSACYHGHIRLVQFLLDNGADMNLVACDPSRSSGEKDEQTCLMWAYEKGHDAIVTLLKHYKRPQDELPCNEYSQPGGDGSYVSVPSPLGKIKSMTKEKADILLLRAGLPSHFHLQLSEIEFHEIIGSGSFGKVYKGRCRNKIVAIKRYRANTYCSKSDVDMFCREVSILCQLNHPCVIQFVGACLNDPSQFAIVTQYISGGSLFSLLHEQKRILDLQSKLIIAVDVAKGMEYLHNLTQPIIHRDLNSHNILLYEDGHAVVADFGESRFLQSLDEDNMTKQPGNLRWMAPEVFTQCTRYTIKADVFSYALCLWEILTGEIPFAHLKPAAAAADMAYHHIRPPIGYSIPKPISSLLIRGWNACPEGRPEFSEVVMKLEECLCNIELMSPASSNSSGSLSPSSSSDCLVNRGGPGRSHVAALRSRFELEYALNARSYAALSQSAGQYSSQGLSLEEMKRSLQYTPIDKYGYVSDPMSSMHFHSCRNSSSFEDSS
Assay: Fluorescent polarization assay of compound inhibition on hTNNI3K ATP binding (Biological Assay Method I)
Conditions: displacement of fluorescent ligand, mean of a minimum of 2 experiments, read-out: mean pXC50 (converted)
Source text: Materials: His-MBP-TEV-Full length human TNNI3K (hTNNI3K) was expressed in Baculokinase system and purified from amylase affinity column followed by Superdex200. The fluorescent ligand 5-({[2-({[3-({4-[(5-hydroxy-2-methylphenyl)amino]-2-pyrimidinyl}amino)phenyl]carbonyl}amino)ethyl]amino}carbonyl)-2-(6-hydroxy-3-oxo-3H-xanthen-9-yl)benzoic acid was used. The other buffer components, including MgCl2 (Catalog Number M1028), Bis-Tris (Catalog Number B7535), DTT (Catalog Number D9779) and Chaps (Catalog Number C3023) were purchased from Sigma-Aldrich.
A fluorescent polarization assay was used to determine does response of compound inhibition on hTNNI3K ATP binding. […]
Fifty (50) nL of inhibitors in DMSO (or DMSO controls) were stamped into a 384-well low volume Greiner black plate, followed by addition of 5 μL of Solution 1 to column 18 and 5 μL Solution 2 to columns 1-17 and 19-24 of the plate. […] After that, the fluorescent polarization was measured on Analyst (ex/em: 485/530 nm, Dichroic: 505). […]

IC50	Compound
25.1 nM	CNc1cc(Oc2c(C)cc(NC(=O)Nc3cccc(C(F)(F)F)c3)cc2C)ncn1 [Example 5, N-(3,5-dimethyl-4-{[6-(methylamino)-4-pyrimidinyl]oxy}phenyl)-N′-[3-(trifluoromethyl)phenyl]urea trifluoroacetate]
25.1 nM	CNc1cc(Oc2ccc(NC(=O)Nc3cccc(C(F)(F)F)c3)cc2F)ncn1 [Example 11, N-(3-fluoro-4-{[6-(methylamino)-4-pyrimidinyl]oxy}phenyl)-N′-[3-(trifluoromethyl)phenyl]urea trifluoroacetate]
